Results: publication PMC6986909 (Nature, 2020)

Legend:
Format in all cases: biochemical
AcrIII-1 YddF = target: T1, AcrIII-1 YddF (Bacillus subtilis, UniProt P96643); test: single-turnover cleavage of […]-labelled cA4, denaturing PAGE / TLC; conditions: 8 uM dimer, MES pH 6.0, 100 mM NaCl, 1 mM EDTA, 37 °C; labelled compound
T1 sequence (P96643 1-108): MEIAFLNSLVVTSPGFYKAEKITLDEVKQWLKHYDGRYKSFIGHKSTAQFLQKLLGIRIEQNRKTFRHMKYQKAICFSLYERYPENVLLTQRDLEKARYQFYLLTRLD

Crn1 Sso2081 = target: T2, Crn1 Sso2081 (Saccharolobus solfataricus, UniProt Q7LYJ6); test: as above; conditions: 4 uM dimer, Tris-HCl pH 8.0, 100 mM NaCl, 1 mM EDTA, 50 °C; labelled compound
T2 sequence (Q7LYJ6 1-178): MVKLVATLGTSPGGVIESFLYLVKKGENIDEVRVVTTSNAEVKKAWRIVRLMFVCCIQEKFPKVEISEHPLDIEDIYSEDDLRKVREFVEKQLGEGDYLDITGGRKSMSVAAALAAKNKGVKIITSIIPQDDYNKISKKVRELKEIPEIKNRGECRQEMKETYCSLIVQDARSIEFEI

AcrIII-1 SIRV1 gp29 = target: T3, AcrIII-1 SIRV1 gp29 (Sulfolobus islandicus rod-shaped virus 1, UniProt Q8QL27); test: degradation of unlabelled cA6, TLC under […] nm UV; conditions: 40 uM dimer, 450 uM cA6, MES pH 5.5, 70 °C; weak substrate, very slow
T3 sequence (Q8QL27 1-114): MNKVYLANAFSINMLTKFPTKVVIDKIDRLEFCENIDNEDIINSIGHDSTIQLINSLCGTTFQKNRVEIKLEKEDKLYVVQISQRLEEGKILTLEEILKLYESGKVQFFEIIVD

| SMILES | single-turnover cleavage of 32P-labelled cA4, denaturing PAGE / TLC (AcrIII-1 YddF) | single-turnover cleavage of 32P-labelled cA4, denaturing PAGE / TLC (Crn1 Sso2081) | degradation of unlabelled cA6, TLC under 254 nm UV (AcrIII-1 SIRV1 gp29) |
| --- | --- | --- | --- |
| Nc1ncnc2c1ncn2[C@@H]1O[C@@H]2COP(=O)(O)O[C@H]3[C@@H](O)[C@H](n4cnc5c(N)ncnc54)O[C@@H]3COP(=O)(O)O[C@H]3[C@@H](O)[C@H](n4cnc5c(N)ncnc54)O[C@@H]3COP(=O)(O)O[C@H]3[C@@H](O)[C@H](n4cnc5c(N)ncnc54)O[C@@H]3COP(=O)(O)O[C@H]2[C@H]1O [cA4] | Both proteins possess a potent ring nuclease activity, rapidly degrading cA4 | Kinetic comparison of cA4 degradation by the AcrIII-1 enzymes SIRV1 gp29 and YddF | – |
| Nc1ncnc2c1ncn2[C@@H]1O[C@@H]2COP(=O)(O)O[C@H]3[C@@H](O)[C@H](n4cnc5c(N)ncnc54)O[C@@H]3COP(=O)(O)O[C@H]3[C@@H](O)[C@H](n4cnc5c(N)ncnc54)O[C@@H]3COP(=O)(O)O[C@H]3[C@@H](O)[C@H](n4cnc5c(N)ncnc54)O[C@@H]3COP(=O)(O)O[C@H]3[C@@H](O)[C@H](n4cnc5c(N)ncnc54)O[C@@H]3COP(=O)(O)O[C@H]3[C@@H](O)[C@H](n4cnc5c(N)ncnc54)O[C@@H]3COP(=O)(O)O[C@H]2[C@H]1O [cA6] | – | – | strong preference for cA4 over cA6, with the latter degraded very slowly by comparison |
